Experimental data taken from paper PMC3726004 (Bioorganic & medicinal chemistry, 2009).

Experiments:
α4β2* nAChRs [1] = biological target: T1, α4β2* nAChRs (Rattus norvegicus, UniProt P09483+P12390); assay: [3H]nicotine; format: binding
α4β2* nAChRs [2] = biological target: T1, α4β2* nAChRs; assay: nicotine-evoked 86Rb+ efflux from rat thalamic synaptosomes; format: biochemical
[3] = biological target: serotonin transporter (SERT) (Rattus norvegicus, UniProt P31652); assay: [3H]5-HT uptake into rat hippocampal synaptosomes; format: biochemical
VMAT2 = VMAT2 (Rattus norvegicus, UniProt Q01827); assay: [3H]MTBZ or [3H]DTBZ binding to rat synaptic vesicle membranes
Sequence of VMAT2 (Q01827 whole entry): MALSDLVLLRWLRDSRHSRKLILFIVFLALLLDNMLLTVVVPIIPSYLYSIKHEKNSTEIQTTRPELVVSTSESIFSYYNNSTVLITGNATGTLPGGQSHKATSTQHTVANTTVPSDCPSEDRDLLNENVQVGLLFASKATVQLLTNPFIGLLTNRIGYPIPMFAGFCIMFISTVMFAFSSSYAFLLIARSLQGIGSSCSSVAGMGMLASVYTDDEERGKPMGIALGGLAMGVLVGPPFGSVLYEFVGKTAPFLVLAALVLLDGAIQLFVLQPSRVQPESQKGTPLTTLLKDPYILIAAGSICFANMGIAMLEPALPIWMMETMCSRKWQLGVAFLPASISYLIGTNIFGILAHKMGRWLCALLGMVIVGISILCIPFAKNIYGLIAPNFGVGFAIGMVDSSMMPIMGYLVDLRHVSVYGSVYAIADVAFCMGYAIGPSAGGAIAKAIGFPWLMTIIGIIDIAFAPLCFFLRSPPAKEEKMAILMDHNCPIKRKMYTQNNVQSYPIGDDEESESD

T1 sequence (P09483 31-630): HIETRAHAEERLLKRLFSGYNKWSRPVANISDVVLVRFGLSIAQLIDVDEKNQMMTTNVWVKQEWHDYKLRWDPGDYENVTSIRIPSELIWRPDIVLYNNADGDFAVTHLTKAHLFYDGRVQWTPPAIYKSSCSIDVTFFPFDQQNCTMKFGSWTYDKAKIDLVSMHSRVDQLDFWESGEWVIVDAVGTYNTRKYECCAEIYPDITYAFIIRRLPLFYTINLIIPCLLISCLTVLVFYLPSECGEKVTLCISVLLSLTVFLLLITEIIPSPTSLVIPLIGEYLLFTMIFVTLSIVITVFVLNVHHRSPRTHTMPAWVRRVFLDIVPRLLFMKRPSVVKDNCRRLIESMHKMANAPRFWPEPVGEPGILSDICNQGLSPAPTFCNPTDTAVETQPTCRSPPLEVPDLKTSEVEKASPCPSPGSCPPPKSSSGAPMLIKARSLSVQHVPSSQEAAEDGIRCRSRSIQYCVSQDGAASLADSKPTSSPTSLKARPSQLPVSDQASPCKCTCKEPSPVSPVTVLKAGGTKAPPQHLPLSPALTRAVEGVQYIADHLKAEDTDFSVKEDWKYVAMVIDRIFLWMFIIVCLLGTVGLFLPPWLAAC
T1 sequence (P12390 25-500): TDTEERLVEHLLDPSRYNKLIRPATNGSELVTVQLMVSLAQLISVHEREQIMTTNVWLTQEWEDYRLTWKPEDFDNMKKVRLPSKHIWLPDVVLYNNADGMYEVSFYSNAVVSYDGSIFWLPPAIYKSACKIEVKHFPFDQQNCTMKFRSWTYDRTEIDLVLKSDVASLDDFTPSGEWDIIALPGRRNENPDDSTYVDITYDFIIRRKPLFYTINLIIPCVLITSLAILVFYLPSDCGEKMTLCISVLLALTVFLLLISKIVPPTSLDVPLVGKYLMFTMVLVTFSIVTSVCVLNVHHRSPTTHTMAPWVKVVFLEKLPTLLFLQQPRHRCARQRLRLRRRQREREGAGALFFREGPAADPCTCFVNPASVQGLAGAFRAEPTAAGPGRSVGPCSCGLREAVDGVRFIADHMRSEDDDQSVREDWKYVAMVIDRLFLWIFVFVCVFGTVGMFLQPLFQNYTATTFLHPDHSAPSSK
Sequence of serotonin transporter (SERT) (P31652 whole entry): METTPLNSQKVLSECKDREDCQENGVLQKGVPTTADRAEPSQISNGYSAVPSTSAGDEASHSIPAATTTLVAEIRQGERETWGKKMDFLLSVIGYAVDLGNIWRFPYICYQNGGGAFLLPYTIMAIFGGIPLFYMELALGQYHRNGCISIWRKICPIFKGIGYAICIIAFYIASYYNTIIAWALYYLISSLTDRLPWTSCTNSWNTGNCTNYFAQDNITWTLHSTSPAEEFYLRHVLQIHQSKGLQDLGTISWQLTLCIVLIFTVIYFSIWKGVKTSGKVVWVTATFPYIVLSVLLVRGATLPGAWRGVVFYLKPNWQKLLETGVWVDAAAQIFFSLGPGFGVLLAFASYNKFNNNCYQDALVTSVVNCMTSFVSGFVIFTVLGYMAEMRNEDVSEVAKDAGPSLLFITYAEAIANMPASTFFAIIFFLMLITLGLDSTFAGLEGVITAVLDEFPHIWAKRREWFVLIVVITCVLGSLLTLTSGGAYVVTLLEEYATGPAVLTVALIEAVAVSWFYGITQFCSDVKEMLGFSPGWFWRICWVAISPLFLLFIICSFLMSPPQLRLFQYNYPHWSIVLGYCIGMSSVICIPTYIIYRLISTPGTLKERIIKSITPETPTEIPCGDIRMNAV

With `CN1C(CC(=O)c2ccccc2)CCC[C@H]1CC(OC(=O)c1ccccc1)c1ccccc1.Cl` (stereo in doubt) [Compound 2, (2S, 6S, 2R)-2-[6-(2-Benzoyloxy-2-phenylethyl)-1-methylpiperidin-2-yl]-1-phenylethanone hydrochloride] the “fold less potent than analog 10 in the [3H]nicotine binding assay” value (α4β2* nAChRs [1]) was 360 fold, the “fold less potent than lobeline in inhibiting [3H]nicotine binding (α4β2*)” value (α4β2* nAChRs [1]) was 215–4800 fold and the “extent of inhibition of nicotine-evoked 86Rb+ efflux” value (α4β2* nAChRs [2]) was “completely inhibited”.

With `CC(=O)OC(C[C@@H]1CCCC(CC(=O)c2ccccc2)N1C)c1ccccc1.Cl` (stereo in doubt) [Compound 5, (2S, 6S, 2R)-2-[6-(2-Acetyloxy-2-phenylethyl)-1-methylpiperidin-2-yl]-1-phenylethanone hydrochloride] the “potency compared with lobeline at SERT” value [3] was “equipotent”, the “fold less potent than lobeline in inhibiting [3H]nicotine binding (α4β2*)” value (α4β2* nAChRs [1]) was 15 to 125 fold and the “potency compared with lobeline at VMAT2” value (VMAT2) was “equipotent”.

With `CCC(=O)OC(C[C@@H]1CCCC(CC(=O)c2ccccc2)N1C)c1ccccc1.Cl` (stereo in doubt) [Compound 6, (2S, 6S, 2R)-2-[6-(2-Propionyloxy-2-phenylethyl)-1-methylpiperidin-2-yl]-1-phenylethanone hydrochloride] the “fold less potent than lobeline in inhibiting [3H]nicotine binding (α4β2*)” value (α4β2* nAChRs [1]) was 15 to 125 fold.

For `CCCC(=O)OC(C[C@@H]1CCCC(CC(=O)c2ccccc2)N1C)c1ccccc1.Cl` (stereo in doubt) [Compound 7, (2S, 6S, 2R)-2-[6-(2-Butyryloxy-2-phenylethyl)-1-methylpiperidin-2-yl]-1-phenylethanone hydrochloride], the “fold less potent than lobeline in inhibiting [3H]nicotine binding (α4β2*)” value (α4β2* nAChRs [1]) was 15 to 125 fold.

With `CC(C)C(=O)OC(C[C@@H]1CCCC(CC(=O)c2ccccc2)N1C)c1ccccc1.Cl` (stereo in doubt) [Compound 8, (2S, 6S, 2R)-2-[6-(2-Isobutyryloxy-2-phenylethyl)-1-methylpiperidin-2-yl]-1-phenylethanone hydrochloride] the “fold less potent than lobeline in inhibiting [3H]nicotine binding (α4β2*)” value (α4β2* nAChRs [1]) was 15 to 125 fold.

`CN1C(CC(=O)c2ccccc2)CCC[C@H]1CC(OS(=O)(=O)c1ccccc1)c1ccccc1.Cl` (stereo in doubt) [Compound 10, (2S, 6S, 2R)-2-[6-(2-Benzenesulfonyloxy-2-phenylethyl)-1-methylpiperidin-2-yl]-1-phenylethanone hydrochloride] was tested, and the “potency compared with lobeline at SERT” value [3] was “equipotent”, the “extent of inhibition of nicotine-evoked 86Rb+ efflux” value (α4β2* nAChRs [2]) was “completely inhibited” and the “potency compared with lobeline at VMAT2” value (VMAT2) was “equipotent”.

With `Cc1ccc(S(=O)(=O)OC(C[C@@H]2CCCC(CC(=O)c3ccccc3)N2C)c2ccccc2)cc1.Cl` (stereo in doubt) [Compound 11, (2S, 6S, 2R)-2-[6-(2-p-Toluenesulfonyloxy-2-phenylethyl)-1-methylpiperidin-2-yl]-1-phenylethanone hydrochloride] the “potency compared with lobeline at α4β2* nAChRs ([3H]nicotine binding)” value (α4β2* nAChRs [1]) was “equipotent”.

`COc1ccc(C(=O)O[C@@H](C[C@@H]2CCC[C@H](CC(=O)c3ccccc3)N2C)c2ccccc2)cc1.Cl` [Compound 4, (2S, 6S, 2R)-2-[6-(2-Anisoyloxy-2-phenylethyl)-1-methylpiperidin-2-yl]-1-phenylethanone hydrochloride] was tested, and the “fold less potent than lobeline in inhibiting [3H]nicotine binding (α4β2*)” value (α4β2* nAChRs [1]) was 215–4800 fold and the “potency compared with lobeline at VMAT2” value (VMAT2) was “equipotent”.

For `CN1[C@@H](CC(=O)c2ccccc2)CCC[C@H]1C[C@H](OC(=O)c1cccs1)c1ccccc1.Cl` [Compound 9, (2S, 6S, 2R)-2-[6-(2-(2-Thiophen)-carboxyl-2-phenylethyl)-1-methylpiperidin-2-yl]-1-phenylethanone hydrochloride], the “fold less potent than lobeline in inhibiting [3H]nicotine binding (α4β2*)” value (α4β2* nAChRs [1]) was 215–4800 fold.
